Experiments:
[1] = Step-down Passive Avoidance Test (Mondadori and Waser): memory improvement; format: in vivo; conditions: for Gedächtnisverbesserung: significance by Mann-Whitney U test; for Dosis, um die gedächtnisverbessernde Wirkung von 0,1 mg/kg i.p. von 1-[2-(Indol-3-yl)ethyl]-1,2,5,6,-tetrahydro-pyridin-3-carbonsauremethylester zu erzielen / Dosis relativ zu 1-[2-(Indol-3-yl)ethyl]-1,2,5,6,-tetrahydro-pyridin-3-carbonsauremethylester für gleiche gedächtnisverbessernde Wirkung: i.p.; for Dosis relativ zu 1-[2-(Indol-3-yl)ethyl]-1,2,5,6,-tetrahydro-pyridin-3-carbonsauremethylester für gleiche gedächtnisverbessernde Wirkung: 10 mg/kg versus 0,1 mg/kg
Experimental: Insbesondere zeigen die Verbindungen der Formel I eine starke gedächtnisverbessernde Wirkung im Step-down Passive Avoidance Test nach Mondadori und Waser, Psychopharmacology 63, 297-300 (1979). Die Substanzen sind wirksam bei intraperitonealer Gabe 30 Minuten vor dem Lernversuch (wirksame Dosen 0,1, 1, 10 mg/kg). Eine deutliche Wirkung war auch feststellbar bei peroraler Applikation 60 Minuten vor dem Lernversuch (wirksame Dosen 0,1, 1, 10 mg/kg) sowie bei intraperitonealer Applikation unmittelbar nach dem Lernversuch (wirksame Dosen 0,1, 1, 10 mg/kg). […] Daraus ergibt sich, dass, um die gedächtnisverbessernde Wirkung von 0,1 mg/kg i.p. von 1-[2-(Indol-3-yl)ethyl]-1,2,5,6,-tetrahydro-pyridin-3-carbonsauremethylester zu erzielen, 10 mg/kg i.p., d.h. die 100-fache Dosis eines Isomeren A, B und C benötigt werden. Die Signifikanzangaben beziehen sich, ebenso wie im vorhergehenden Absatz, auf den U-Test von Mann und Whitney.

[2] = tested on: amnesiogene Wirkung eines Elektroschocks; experiment: Two-compartment test: protection against electroshock-induced amnesia; format: in vivo, Maus; conditions: for antiamnesiogener Effekt: significance by Mann-Whitney U test
Experimental: So vermindern sie an der Maus in Dosen ab etwa 0,1 mg/kg i.p. sowie p.o. die amnesiogene Wirkung eines Elektroschocks in mindestens gleichem Ausmass wie nach Verabfolgung einer nootrop wirksamen Dosis von Piracetam (100 mg/kg i.p.). Zum Nachweis der nootropen Wirkung kann beispielsweise der Two-Compartment-Test herangezogen werden.
Als Literatur über pharmakologische Modelle dieser Art seien z.B. genannt: S.J. Sara und D. Lefevre, Paychopharmacologia 25, 32-40 (1972), Hypoxia-induced amnesia in one-trial learning and pharmacological protection by piracetam. Boggan, W.O., und Schlesinger, K., in Behavioral Biology 12, 127-134 (1974).

| Compound | Gedächtnisverbesserung ([1]; 0,1 mg/kg i.p.) | Gedächtnisverbesserung ([1]; 10 mg/kg i.p.) | Gedächtnisverbesserung ([1]; 1,0 mg/kg i.p.) | Dosis, um die gedächtnisverbessernde Wirkung von 0,1 mg/kg i.p. von 1-[2-(Indol-3-yl)ethyl]-1,2,5,6,-tetrahydro-pyridin-3-carbonsauremethylester zu erzielen [1] [mg/kg] | Dosis relativ zu 1-[2-(Indol-3-yl)ethyl]-1,2,5,6,-tetrahydro-pyridin-3-carbonsauremethylester für gleiche gedächtnisverbessernde Wirkung [1] | antiamnesiogener Effekt ([2]; 0,1 mg/kg i.p.) | antiamnesiogener Effekt ([2]; 10 mg/kg i.p.) | antiamnesiogener Effekt ([2]; 1,0 mg/kg i.p.) | nootrop wirksame Dosis ([2]; Maus, i.p., reference) [mg/kg] |
| --- | --- | --- | --- | --- | --- | --- | --- | --- | --- |
| COC(=O)C1=CCN(CCc2c[nH]c3ccccc23)CC1 [Isomere C, 1-[2-(Indol-3-yl)ethyl]-1,2,5,6-tetrahydro-pyridin-4-carbonsäuremethylester] | keinen | signifikanten (p<0,05) Effekt | keinen | 10 | 100 -fache Dosis | keine signifikante antiamnesiogene Wirkung | keine signifikante antiamnesiogene Wirkung | keine signifikante antiamnesiogene Wirkung | – |
| NC(=O)CN1CCCC1=O [Piracetam] | – | – | – | – | – | – | – | – | 100 |
| CCOC(=O)C1=CCCN(Cc2c[nH]c3ccccc23)C1 [Isomere B, 1-(Indol-3-yl)methyl-l,2,5,6-tetrahydro-pyridin-3-carbonsäureethylester] | keinen | signifikanten (p<0,05) Effekt | keinen | 10 | 100 -fache Dosis | ähnlichen, jedoch weniger signifikanten (p<0,05) Effekt | ähnlichen, jedoch weniger signifikanten (p<0,05) Effekt | ähnlichen, jedoch weniger signifikanten (p<0,05) Effekt | – |
| COC(=O)C1=CN(CCc2c[nH]c3ccccc23)CCC1 [Isomere A, 1-(2-(Indol-3-yl)-ethyl]-1,4,5,6-tetrahydro-pyridin-3-carbonsäuremethylester] | keinen | signifikanten (p<0,05) Effekt | keinen | 10 | 100 -fache Dosis | keinen signifikanten | keinen signifikanten | gewissen (nur einseitig signifikanten) | – |
| COC(=O)C1=CCCN(CCc2c[nH]c3ccccc23)C1 [1-[2-(Indol-3-yl)ethyl]-1,2,5,6-tetrahydro-pyridin-3-carbonsäuremethylester] | signifikante (p<0,05) | hochsignifikante (p<0,01) | signifikante (p<0,05) | – | – | hochsignifikanten (p<0,01) antiamnesiogenen Effekt | – | hochsignifikanten (p<0,01) antiamnesiogenen Effekt | – |

From patent EP0187619A2, “1,3-Disubstituted tetrahydropyridines” (priority 1985, dated 1986)
